Data: patent publication US11332470B2, “CXCR4 inhibitors and uses thereof” (X4 Pharmaceuticals, Inc., priority 2016, dated 2022)

Legend:
[1] = in vitro; settings: human, Caco-2, pH 7.4
Experimental: The goal of this assay was to evaluate the intestinal absorption potential of drug candidates using Caco-2 cell lines.
1. Prewarm Prewarm HBSS Buffer in 37° C. water bath
2. Sonicate Take compounds from −20° C., sonicate for a few minutes (no less than 1 minute)
• Donor solution buffer: For A-to-B Direction: HBSS buffer with 0.3% DMSO and 5 μM LY: add 150 μL DMSO and 50 μL LY (5 mM) into 50 ml HBSS buffer (pH 7.4). HBSS buffer with 0.1% DMSO and 5 μM LY: add 50 μL DMSO and 50 μL LY (5 mM) into 50 mL HBSS buffer (pH 7.4). For B-to-A Direction: HBSS buffer with 0.3% DMSO: add 150 μL DMSO into 50 ml HBSS buffer (pH 7.4). HBSS buffer with 0.1% DMSO: add 50 μL DMSO into 50 ml HBSS buffer (pH 7.4). Receiver Solution Buffer: For A-to-B Direction: Prepare HBSS buffer with 0.4% DMSO: add 200 μL DMSO into 50 ml HBSS buffer (pH 7.4). For B-to-A Direction: Prepare HBSS buffer with 0.4% DMSO and 5 μM LY: add 200 μL DMSO and 50 μL LY (5 mM) into 50 ml HBSS buffer (pH 7.4).
4. Measure TEER Take cell culture plate out of incubator, wash the cell monolayers with HBSS buffer, and then measure TEER values at Rm temperature. 5. Centrifuge Centrifuge the compound solution (from step 3) at 4000 rpm for 5 min before loading to donor chambers. 6. Dosing Add solution based on the volumes listed in the following table (make sure to take extra 100 μL of donor sample for TO as Backup).
7. Apical LYT0 samples To determine LY concentration in the apical chamber, take 100 μL sample from apical chambers into an opaque plate for LYT0. 8. Prewarm Prewarm apical and basolateral plates at 37° C. for about 5 min, then begin transport by placing the apical plate onto basolateral plate. 9. Incubation Keep the plates in incubator at 37° C. for 90 min. 10.
Prepare Working Solution in MeOH/H2O (1:1)
• Prepare 1×solution: 3 μL (20×)+57 μL of 0.4% DMSO HBSS+60 μL ACN with IS (Osalmid or Imipramine)−120 μL (1×) 11. Transport termination Separate the apical plate from the basolateral plate after 90-min incubation. 12. Measure LY Take 100 μL samples from basolateral plate to an opaque plate as LYT90. 13. Measure LY concentrations for LYT0 and LYT90 by Fluorometer (at excitation of 485 nm/emission of 535 nm). 14.
Study details: Test concentration 10 μM
Test systems: Caco-2/HBSS solution
Incubation conditions: 0, 90 min at 37° C.
Sample size: Duplicates (n=2)
Bioanalytical method: LC-MS/MS
For Millicell-24 Cell Culture Plates: surface area of the membrane=0.7 cm^2, VA=0.8 mL (A-to-B) or 0.4 mL (B-to-A)
The compound numbers correspond to the compound numbers in Table 1.

[2] = molecular target: T1, CXCR4 (U87.CXCR4 cells) (Homo sapiens, UniProt P61073); test: Intracellular CXCL-12-induced calcium mobilization assay (FLIPR); format: cell-based; settings: CXCL-12 25-50 ng/mL, read-out: IC50 CXCL-12 Ca2+ flux U87.CXCR4+
T1 construct: expressed in transfected cells; host or cells: U87 (U87.CXCR4)
Experimental: Intracellular CXCL-12-Induced Calcium Mobilization Assay
Intracellular calcium mobilization induced by chemokines or chemokine-derived peptides were evaluated using a calcium responsive fluorescent probe and a FLIPR system. The CXCR-4 transfected U87 cell line (U87.CXCR4) cells were seeded in gelatine-coated black-wall 96-well plates at 20,000 cells per well and incubated for 12 hours. Cells were then loaded with the fluorescent calcium probe Fluo-2 acetoxymethyl at 4 μM final concentration in assay buffer (Hanks' balanced salt solution with 20 mM HEPES buffer and 0.2% bovine serum albumin, pH 7.4) for 45 min at 37° C. The intracellular calcium mobilization induced by the CXCL-12 (25-50 ng/mL) was then measured at 37° C. by monitoring the fluorescence as a function of time in all the wells simultaneously using a fluorometric imaging plate reader (FLIPR Tetra, Molecular Devices).

[3] = molecular target: T2, CXCR4 (Jurkat cells expressing CXCR4) (Homo sapiens, UniProt P61073); test: Chemokine (CXCL12-AF647) binding inhibition assay; settings: CXCL12-AF647 25 ng/mL, read-out: IC50 CXCL-12 binding Jurkat
T2 construct: Jurkat cells expressing CXCR4; endogenous in cells; host or cells: Jurkat
Experimental: Chemokine (CXCL12-AF647) Binding Inhibition Assay
Jurkat cells expressing CXCR4 were washed once with assay buffer (Hanks' balanced salt solution with 20 mM HEPES buffer and 0.2% bovine serum albumin, pH 7.4) and then incubated for 15 min at room temperature with the test compounds diluted in assay buffer at dose-dependent concentrations. Subsequently, CXCL12-AF647 (25 ng/mL) was added to the compound-incubated cells. The cells were incubated for 30 min at room temperature. Thereafter, the cells were washed twice in assay buffer, fixed in 1% paraformaldehyde in PBS, and analyzed on the FL4 channel of a FACSCalibur flow cytometer equipped with a 635-nm red diode laser (Becton Dickinson, San Jose, Calif., USA).
The percentages of inhibition of CXCL12-AF647 binding were calculated according to the formula: [1−((MFI−MFINC)/(MFIPC−MFINC))]×100 where MFI is the mean fluorescence intensity of the cells incubated with CXCL12-AF647 in the presence of the inhibitor, MFINC is the mean fluorescence intensity measured in the negative control (i.e., autofluorescence of unlabeled cells), and MFIPC is the mean fluorescence intensity of the positive control (i.e., cells exposed to CXCL12-AF647 alone).

T1 sequence (P61073 whole entry): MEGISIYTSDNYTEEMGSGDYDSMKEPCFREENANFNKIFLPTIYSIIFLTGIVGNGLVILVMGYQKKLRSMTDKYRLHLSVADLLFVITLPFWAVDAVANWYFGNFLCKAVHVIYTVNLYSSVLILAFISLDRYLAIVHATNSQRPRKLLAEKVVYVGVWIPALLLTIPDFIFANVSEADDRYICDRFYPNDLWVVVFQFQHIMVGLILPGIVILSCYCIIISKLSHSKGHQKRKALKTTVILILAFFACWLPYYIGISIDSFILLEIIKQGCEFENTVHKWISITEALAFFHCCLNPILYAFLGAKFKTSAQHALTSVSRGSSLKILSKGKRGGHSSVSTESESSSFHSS
T2 sequence (P61073 whole entry): as above

Row | Structure (SMILES) | Papp A→B at 90 min, 10 μM [1] [×10⁻⁶ cm/s] | Papp B→A at 90 min, 10 μM [1] [×10⁻⁶ cm/s] | efflux ratio at 90 min, 10 μM [1] | IC50 [2] [nM] | IC50 [3] [nM]
1 | N#CCCc1cccc2nc(CN3CCCC3c3ccccn3)cn12 (centres unmarked) [Compound I-84] | 0.1 to 10 | > 30 | 0.1 to 10 | ≥ 1000 | ≥ 1000
2 | Cc1cccnc1C1CCCN1Cc1cn2c(N3CCN(C)CC3)cccc2n1 (centres unmarked) [Compound I-6, 5-(4-methylpiperazin-1-yl)-2-((2-(3-methylpyridin-2-yl)pyrrolidin-1-yl)methyl)imidazo[1,2-a]-pyridine] | 0.1 to 10 | 10 to 30 | 10 to 30 | 0.01 to 100 | 0.01 to 100
3 | Cc1cccnc1C1CCCN1Cc1nc2cccc(N3CCN4CCCC4C3)c2[nH]1 (centres unmarked) [Compound I-48] | 0.1 to 10 | 10 to 30 | 0.1 to 10 | 0.01 to 100 | 0.01 to 100
4 | Cc1cccnc1C1CCCN1Cc1ncccc1CC1CCN(C)CC1 (centres unmarked) [Compound I-117] | 0.1 to 10 | > 30 | > 30 | 0.01 to 100 | 0.01 to 100
5 | Cc1cccnc1C1CCCN1Cc1ccccc1-n1cccn1 (centres unmarked) [Compound I-4, 2-(1-(2-(1H-pyrazol-1-yl)benzyl)pyrrolidin-2-yl)-3-methylpyridine] | > 30 | 10 to 30 | 0.1 to 10 | 100 to 1000 | ≥ 1000
6 | c1ccc(N2CCN(c3c(CN4CCCC4c4ccccn4)nc4ccccn34)CC2)cc1 (centres unmarked) [Compound I-96] | 10 to 30 | 10 to 30 | 0.1 to 10 | ≥ 1000 | 100 to 1000
7 | CN1CCN(c2c(CN3CCCC3c3ccccn3)nc3ccccn23)CC1=O (centres unmarked) [Compound I-85] | 0.1 to 10 | > 30 | 0.1 to 10 | ≥ 1000 | 100 to 1000
8 | Cc1cccnc1C1CCCN1Cc1nc2ccccn2c1CN1CCOCC1 (centres unmarked) [Compound I-119] | 0.1 to 10 | > 30 | 10 to 30 | 100 to 1000 | 0.01 to 100
9 | Cc1cccnc1C1CCCN1Cc1ncccc1CN1CCOCC1 (centres unmarked) [Compound I-118] | 0.1 to 10 | > 30 | 0.1 to 10 | ≥ 1000 | 100 to 1000

More lines, now with the values ahead:

Row | Papp A→B at 90 min, 10 μM [1] [×10⁻⁶ cm/s] | Papp B→A at 90 min, 10 μM [1] [×10⁻⁶ cm/s] | efflux ratio at 90 min, 10 μM [1] | IC50 [2] [nM] | IC50 [3] [nM] | Structure (SMILES)
10 | 0.1 to 10 | > 30 | > 30 | 100 to 1000 | 0.01 to 100 | Cc1cccnc1C1CCCN1Cc1cn2c(C3OCC(N(C)C)CO3)cccc2n1 (centres unmarked) [Compound I-99]
11 | > 30 | > 30 | 0.1 to 10 | 100 to 1000 | 0.01 to 100 | c1ccc(C2CCCN2Cc2nc3ccccn3c2N2CCN(c3ccccn3)CC2)nc1 (centres unmarked) [Compound I-97]
12 | 0.1 to 10 | 10 to 30 | 10 to 30 | 0.01 to 100 | 0.01 to 100 | CN1CCN(c2c(CN3CCCC3c3nccn3C)nc3ccccn23)CC1 (centres unmarked) [Compound I-69]
13 | 0.1 to 10 | 10 to 30 | 0.1 to 10 | 0.01 to 100 | 0.01 to 100 | CN1CCN(c2c(CN3CCCC3c3ccccn3)nc3cc(F)ccn23)CC1 (centres unmarked) [Compound I-62]
14 | 0.1 to 10 | 10 to 30 | 0.1 to 10 | 100 to 1000 | 0.01 to 100 | Cc1cccnc1C1CCCCN1Cc1cn2c(N3CCN(C)CC3)cccc2n1 (centres unmarked) [Compound I-1, 5-(4-methylpiperazin-1-yl)-2-((2-(3-methylpyridin-2-yl)piperidin-1-yl)methyl)imidazo[1,2-a]-pyridine]
15 | > 30 | > 30 | 0.1 to 10 | 100 to 1000 | 0.01 to 100 | FC(F)(F)CN1CCN(c2c(CN3CCCC3c3ccccn3)nc3ccccn23)CC1 (centres unmarked) [Compound I-98]
16 | 10 to 30 | 10 to 30 | 0.1 to 10 | ≥ 1000 | 100 to 1000 | Cc1cccnc1C1CCCN1Cc1nccn1Cc1ccncc1 (centres unmarked) [Compound I-87]
17 | 10 to 30 | > 30 | 0.1 to 10 | ≥ 1000 | 100 to 1000 | Cc1cccnc1C1CCCN1Cc1nccn1Cc1ccccn1 (centres unmarked) [Compound I-89]
18 | 0.1 to 10 | 10 to 30 | 0.1 to 10 | ≥ 1000 | 100 to 1000 | CN1CCC(n2ccnc2CN2CCCC2c2ccccn2)CC1 (centres unmarked) [Compound I-55]
19 | 10 to 30 | > 30 | 0.1 to 10 | ≥ 1000 | 100 to 1000 | Cc1cccnc1C1CCCN1Cc1nccn1CC1CCN(CC(F)(F)F)CC1 (centres unmarked) [Compound I-106]
